The nature of assay [1]: growth suppression of beta-catenin-knockout colon cells, dose response, cell-based, HCT116, human colon tumor (AID 1045).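 Further: HCT116 colon tumor cells with beta catenin knocked out; cells exposed to compound for 60 hours.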 The class given is functional.
Assay [2] has as its target T1, Sentrin-specific protease 7 (Homo sapiens, UniProt Q9BQF6).
T1 sequence (Q9BQF6 whole entry): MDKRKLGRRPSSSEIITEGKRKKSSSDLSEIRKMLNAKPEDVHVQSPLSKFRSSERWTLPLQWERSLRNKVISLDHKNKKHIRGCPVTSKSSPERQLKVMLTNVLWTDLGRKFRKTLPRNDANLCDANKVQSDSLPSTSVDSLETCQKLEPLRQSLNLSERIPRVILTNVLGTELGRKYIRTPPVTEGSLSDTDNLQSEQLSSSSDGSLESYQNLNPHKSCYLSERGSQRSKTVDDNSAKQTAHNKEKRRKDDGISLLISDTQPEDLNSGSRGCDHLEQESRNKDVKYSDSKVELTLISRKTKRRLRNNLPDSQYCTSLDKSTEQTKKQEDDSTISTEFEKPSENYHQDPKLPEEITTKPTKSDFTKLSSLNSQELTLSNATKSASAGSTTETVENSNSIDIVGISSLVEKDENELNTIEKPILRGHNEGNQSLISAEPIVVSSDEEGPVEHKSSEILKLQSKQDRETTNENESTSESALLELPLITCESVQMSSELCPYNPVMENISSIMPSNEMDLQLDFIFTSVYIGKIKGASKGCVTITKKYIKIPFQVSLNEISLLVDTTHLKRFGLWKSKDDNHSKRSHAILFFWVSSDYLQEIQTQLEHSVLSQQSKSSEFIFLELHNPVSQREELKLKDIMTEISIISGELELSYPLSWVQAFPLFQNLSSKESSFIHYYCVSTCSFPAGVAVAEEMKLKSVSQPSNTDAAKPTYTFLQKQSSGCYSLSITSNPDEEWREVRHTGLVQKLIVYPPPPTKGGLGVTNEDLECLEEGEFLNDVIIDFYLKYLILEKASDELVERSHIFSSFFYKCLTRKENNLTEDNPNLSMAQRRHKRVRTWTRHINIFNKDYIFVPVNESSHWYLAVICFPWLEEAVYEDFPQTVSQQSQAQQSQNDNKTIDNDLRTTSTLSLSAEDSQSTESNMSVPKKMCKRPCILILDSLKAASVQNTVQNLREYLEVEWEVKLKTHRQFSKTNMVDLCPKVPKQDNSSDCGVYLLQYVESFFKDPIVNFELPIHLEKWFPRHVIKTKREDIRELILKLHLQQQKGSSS
Kind of assay: SENP7 protease inhibitors, SAR follow-up, biochemical, luminescence (AID 504497). The class given is functional.

For assay [3], the target named is Tyrosyl-DNA phosphodiesterase 2 (Homo sapiens, UniProt O95551). Kind of assay: human TDP2 enzyme inhibitors, dose response, biochemical, epi absorbance, IC50 (AID 743297).

This note sets out measurements from ChEMBL document CHEMBL1201862, “PubChem BioAssay data set” (2004).

Calls of active or inactive are those of the source.

Tyrosyl-DNA phosphodiesterase 2, sequence (O95551 whole entry): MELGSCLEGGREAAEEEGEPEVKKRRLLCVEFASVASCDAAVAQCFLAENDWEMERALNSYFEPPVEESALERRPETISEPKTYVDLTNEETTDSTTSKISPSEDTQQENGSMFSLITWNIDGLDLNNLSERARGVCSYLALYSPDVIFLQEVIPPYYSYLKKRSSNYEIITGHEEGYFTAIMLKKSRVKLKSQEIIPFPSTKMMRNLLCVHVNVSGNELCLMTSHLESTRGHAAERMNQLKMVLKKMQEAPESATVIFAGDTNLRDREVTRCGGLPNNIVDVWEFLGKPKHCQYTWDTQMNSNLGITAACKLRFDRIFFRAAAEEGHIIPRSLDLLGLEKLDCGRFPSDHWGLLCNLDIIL

The EC50 is the midpoint of the concentration-response curve. One may read the IC50 as the point on the concentration scale where inhibition reaches its midpoint. On to `Oc1cccc(/C=N/Nc2cc(N3CCCC3)nc(N3CCCC3)n2)c1`, for which, in assay [1], the EC50 is 18.8 µM (active). In addition, the IC50 in assay [2] was 49.7 µM (active).

Turning to `CCOC(=O)C1=C(COC(=O)c2ccc([N+](=O)[O-])s2)NC(=O)NC1C` (stereo not drawn), the IC50 in assay [3] was 52.5 µM (inactive).
